≈ marks a conversion by molar mass, not a printed value.
Experiments:
S. aureus NCTC 4163 = experiment: MIC, twofold microdilution, standard strain; format: cell-based; conditions: Staphylococcus aureus, NCTC4163, 18 h
S. aureus ATCC 25923 = experiment: MIC, twofold microdilution, standard strain; format: cell-based; conditions: Staphylococcus aureus, ATCC25923, 18 h
S. aureus ATCC 6538 = experiment: MIC, twofold microdilution, standard strain; format: cell-based, Staphylococcus aureus; conditions: Staphylococcus aureus, ATCC6538; standard strain, 18 h
S. aureus ATCC 29213 = experiment: MIC, twofold microdilution, standard strain; format: cell-based; conditions: Staphylococcus aureus, ATCC29213, 18 h
[1] = test system: S. epidermidis ATCC 12228; experiment: MIC, twofold microdilution, standard strain; format: cell-based; conditions: Staphylococcus epidermidis, ATCC12228, 18 h
[2] = test system: S. epidermidis ATCC 35984; experiment: MIC, twofold microdilution, standard strain; format: cell-based; conditions: Staphylococcus epidermidis, ATCC35984, 18 h
P. aeruginosa ATCC 15442 = experiment: MIC, twofold microdilution, standard strain; format: cell-based, Pseudomonas aeruginosa; conditions: Pseudomonas aeruginosa, ATCC15442; standard strain, 18 h
E. coli ATCC 25922 = experiment: MIC, twofold microdilution, standard strain; format: cell-based, Escherichia coli; conditions: Escherichia coli, ATCC25922; standard strain, 18 h
S. aureus 180 = experiment: MIC, twofold microdilution, clinical strain; format: cell-based; conditions: Staphylococcus aureus, 18 h
S. aureus 5595 = experiment: MIC, twofold microdilution, clinical strain; format: cell-based; conditions: Staphylococcus aureus, 18 h
S. aureus T5595 = experiment: MIC, twofold microdilution, clinical strain; format: cell-based, Staphylococcus aureus; conditions: Staphylococcus aureus, T5595, 18 h
S. aureus T5591 = experiment: MIC, twofold microdilution, clinical strain; format: cell-based, Staphylococcus aureus; conditions: Staphylococcus aureus, T5591, 18 h
S. epidermidis 4341 = experiment: MIC, twofold microdilution, clinical strain; format: cell-based; conditions: Staphylococcus epidermidis, 18 h
S. epidermidis 5253 = experiment: MIC, twofold microdilution, clinical strain; format: cell-based, Staphylococcus epidermidis; conditions: for MIC: Staphylococcus epidermidis, 5253, 18 h
S. epidermidis KR4243/1 = experiment: MIC, twofold microdilution, clinical strain; format: cell-based; conditions: Staphylococcus epidermidis, 18 h
S. pasteuri KR 4358 = experiment: MIC, twofold microdilution, clinical strain; format: cell-based; conditions: Staphylococcus pasteuri, KR4358, 18 h
P. aeruginosa 37 = experiment: MIC, twofold microdilution, clinical strain; format: cell-based; conditions: Pseudomonas aeruginosa, 18 h
P. aeruginosa 659 = experiment: MIC, twofold microdilution, clinical strain; format: cell-based; conditions: Pseudomonas aeruginosa, 18 h
E. coli 951 = experiment: MIC, twofold microdilution, clinical strain; format: cell-based; conditions: Escherichia coli, 18 h
E. coli 520 = experiment: MIC, twofold microdilution, clinical strain; format: cell-based; conditions: Escherichia coli, 18 h
E. coli 600 = experiment: MIC, twofold microdilution, clinical strain; format: cell-based, Escherichia coli; conditions: Escherichia coli, 600, 18 h
E. cloacae 8 = experiment: MIC, twofold microdilution, clinical strain; format: cell-based, Escherichia cloacae; conditions: Enterobacter cloacae, 8; clinical strain, 18 h
K. pneumoniae 28 = experiment: MIC, twofold microdilution, clinical strain; format: cell-based; conditions: Klebsiella pneumoniae, 18 h
K. pneumoniae 510 = experiment: MIC, twofold microdilution, clinical strain; format: cell-based, Klebsiella pneumoniae; conditions: Klebsiella pneumoniae, 510; clinical strain, 18 h
M. tuberculosis H37Rv = experiment: Tuberculostatic activity, Microplate Alamar Blue Assay (MIC); format: cell-based, Mycobacterium tuberculosis; conditions: Mycobacterium tuberculosis, H37RV; MABA; read-out: MIC M. tuberculosis H37Rv
[3] = test system: M. tuberculosis Spec. 192; experiment: as above; format: cell-based; conditions: Mycobacterium tuberculosis, MABA, read-out: MIC M. tuberculosis Spec. 192 (sensitive to tuberculostatics)
PC3 cells = experiment: MTT assay, cytotoxic activity; format: cell-based, human; conditions: Homo sapiens, PC-3, 72 h, MTT, 72 h
Procedure: Metastatic prostate cancer (PC3) and human immortal keratinocyte (HaCaT) cell lines were purchased from the American Type Culture Collection (ATCC, Rockville, MD, USA) and cultured in MEM (minimal essential medium, Thermo Sci, USA), RPMI 1640 (Roswell Park Memorial Institute, Biowest SAS, France), and DMEM (Dulbecco’s Modified Eagle’s Medium, Biowest SAS, France). Cells were seeded in 6 mL medium in a tissue culture flask (50 mL) in a 37 °C/5% CO2 humidified incubator. […] MTT analysis was performed according to a previous study.[59] Untreated cells were used as controls. Cell absorbance results were inserted into the formula for the relative MTT level (%). It allows to calculate the viability of cells under the influence of the tested compounds. Cell viability was expressed as the percentage of MTT reduction in cells treated with tested compounds compared to the control sample. The relative MTT level was calculated using the formula [100%] = A/B × 100% where A—the test sample absorbance and B—the control sample absorbance.

[4] = MTT assay, cytotoxic activity; format: cell-based; conditions: human, HaCaT cells (immortal keratinocytes); MTT, 72 h, normal cell line; read-out: IC50 HaCaT
Procedure: Cells were seeded in 6 mL medium in a tissue culture flask (50 mL) in a 37 °C/5% CO2 humidified incubator. […] MTT analysis was performed according to a previous study.[59] Untreated cells were used as controls. Cell absorbance results were inserted into the formula for the relative MTT level (%). It allows to calculate the viability of cells under the influence of the tested compounds. Cell viability was expressed as the percentage of MTT reduction in cells treated with tested compounds compared to the control sample. The relative MTT level was calculated using the formula [100%] = A/B × 100% where A—the test sample absorbance and B—the control sample absorbance.

[5] = test system: Staphylococci (standard strains); experiment: MIC, standard Gram-positive strains as a panel; format: cell-based, S. aureus, S. epidermidis; conditions: standard Gram-positive strains of Table 1; read-out: MIC toward standard Staphylococci (range over strains)
[6] = test system: P. aeruginosa ATCC 15442 and E. coli ATCC 25922; experiment: MIC, standard Gram-negative rods as a panel; format: cell-based; conditions: P. aeruginosa ATCC 15442, E. coli ATCC 25922; read-out: MIC against standard Gram-negative rods (range over strains)
[7] = test system: clinical bacterial strains; experiment: MIC, clinical isolates as groups of strains; format: cell-based
M. tuberculosis Spec 210 = experiment: microbe, parasite or virus in culture; format: cell-based, Mycobacterium tuberculosis; conditions: M. tuberculosis Spec. 210

SMILES	MIC (S. aureus NCTC 4163) [µg/mL]	MIC (S. aureus ATCC 25923) [µg/mL]	MIC (S. aureus ATCC 6538) [µg/mL]	MIC (S. aureus ATCC 29213) [µg/mL]	MIC [1] [µg/mL]	MIC [2] [µg/mL]	MIC (P. aeruginosa ATCC 15442) [µg/mL]	MIC (E. coli ATCC 25922) [µg/mL]	MIC (S. aureus 180) [µg/mL]	MIC (S. aureus 5595) [µg/mL]	MIC (S. aureus T5595) [µg/mL]	MIC (S. aureus T5591) [µg/mL]	MIC (S. epidermidis 4341) [µg/mL]	MIC (S. epidermidis 5253) [µg/mL]	MIC (S. epidermidis KR4243/1) [µg/mL]	MIC (S. pasteuri KR 4358) [µg/mL]	MIC (P. aeruginosa 37) [µg/mL]	MIC (P. aeruginosa 659) [µg/mL]	MIC (E. coli 951) [µg/mL]	MIC (E. coli 520) [µg/mL]	also measured
O=C(O)c1cn(C2CC2)c2cc(N3CCN(C(=O)CCCCCCl)CC3)c(F)cc2c1=O [Compound 7, 7-[4-(6-Chlorohexanoyl)-piperazin-1-yl]-1-cyclopropyl-6-fluoro-4-oxo-1,4-dihydro-quinoline-3-carboxylic Acid]	0.2 (≈ 0.431 µM)	0.2 (≈ 0.431 µM)	0.2 (≈ 0.431 µM)	0.2 (≈ 0.431 µM)	0.4 (≈ 0.862 µM)	0.2 (≈ 0.431 µM)	12.8 (≈ 27.6 µM)	0.8 (≈ 1.72 µM)	0.5 (≈ 1.08 µM)	0.5 (≈ 1.08 µM)	0.4 (≈ 0.862 µM)	0.4 (≈ 0.862 µM)	25.6 (≈ 55.2 µM)	> 25.6	0.2 (≈ 0.431 µM)	0.2 (≈ 0.431 µM)	> 25.6	> 25.6	> 25.6	6.4 (≈ 13.8 µM)	MIC (E. coli 600): 6.4 µg/mL (≈ 13.8 µM); MIC (E. cloacae 8): 16 µg/mL (≈ 34.5 µM); MIC (K. pneumoniae 28): > 25.6 µg/mL; MIC (K. pneumoniae 510): > 25.6 µg/mL; MIC (M. tuberculosis H37Rv): 0.5 µg/mL (≈ 1.08 µM); MIC [3]: 0.5 µg/mL (≈ 1.08 µM); IC50 (PC3 cells): > 100 µM; IC50 at 72 h [4]: > 100 µM; MIC [5]: 0.1 to 0.8 µg/mL (≈ 0.216 to 1.72 µM); MIC [6]: ≤ 1 µg/mL; share of the reference (CP) activity ([7]; S. aureus T5595 and T5591): 62.5%
O=C(O)c1cn(C2CC2)c2cc(N3CCN(C(=O)CBr)CC3)c(F)cc2c1=O [Compound 8, 7-[4-(2-Bromoacetyl)-piperazin-1-yl]-1-cyclopropyl-6-fluoro-4-oxo-1,4-dihydro-quinoline-3-carboxylic Acid]	0.2 (≈ 0.442 µM)	0.2 (≈ 0.442 µM)	0.2 (≈ 0.442 µM)	0.4 (≈ 0.884 µM)	0.2 (≈ 0.442 µM)	0.2 (≈ 0.442 µM)	3.2 (≈ 7.08 µM)	0.2 (≈ 0.442 µM)	0.8 (≈ 1.77 µM)	0.4 (≈ 0.884 µM)	0.8 (≈ 1.77 µM)	1.6 (≈ 3.54 µM)	12.8 (≈ 28.3 µM)	12.8 to 25.6 (≈ 28.3 to 56.6 µM)	0.4 (≈ 0.884 µM)	0.2 (≈ 0.442 µM)	12.8 (≈ 28.3 µM)	6.4 (≈ 14.2 µM)	6.4 (≈ 14.2 µM)	0.2 (≈ 0.442 µM)	MIC S. epidermidis 5253 (S. epidermidis 5253; 18 h): 25.6 µg/mL (≈ 56.6 µM); MIC (E. coli 600): 0.2 µg/mL (≈ 0.442 µM); MIC (E. cloacae 8): 0.8 µg/mL (≈ 1.77 µM); MIC (K. pneumoniae 28): > 25.6 µg/mL; MIC (K. pneumoniae 510): 25.6 µg/mL (≈ 56.6 µM); MIC (M. tuberculosis H37Rv): 32 µg/mL (≈ 70.8 µM); MIC [3]: 32 µg/mL (≈ 70.8 µM); fold more effective than the reference tuberculostatics (M. tuberculosis Spec 210): 2–8 fold; IC50 (PC3 cells): 39.6 ± 4.3 µM; IC50 at 72 h [4]: 44.9 ± 9 µM; MIC [6]: ≤ 1 µg/mL; MIC ([7]; clinical strains, read-out: MIC against selected E. coli and E. cloacae strains): 0.1 to 0.8 µg/mL (≈ 0.221 to 1.77 µM)

Source: article PMC10233829 (ACS Omega, 2023)
